These results are taken from patent EP0172917A1, “AGENTS FOR TREATING IMMUNODEFICIENCY, METHOD FOR TREATING THEM, AND USE THEREOF” (Yoshitomi Pharmaceutical Industries, Ltd., priority 1984, dated 1985).

For orientation: LD50 means the dose at which mortality reaches 50%. A lower LD50 goes with a more toxic substance. By % inhibition is commonly meant the drop in the measured response relative to a control, in per cent.

One data set deals with peritoneal macrophages. In words: Stimulative effect on phagocytosis of macrophages. In kind it is cell-based, rats. As to conditions: rat peritoneal macrophages. Here is the method:
(§1) Effect of Compound (I) on phagocytosis was examined using rat peritoneal leukocytes according to the method of Stossel et al described in Journal of Clinical Investigation, vol. 51, p. 615 (1972).
Casein sodium was injected intraperitoneally into rats. Three days later, peritoneal macrophages were harvested. Phagocytosis was assessed by the same procedures as shown in Experiment 3.

For data set [1], the system named is spontaneous rosette forming cells. Kind of data set: Stimulative effect on reduced cell-mediated immunity: spontaneous rosette forming cells in thymus of SHR. In kind it is in vivo, spontaneous hypertensive rats. As to conditions: for Ratio (%) of S-RFC (mean ± standard error): SHR, control 46.7±2.9; for % increase: S-RFC ratio vs control. Here is the method: Twenty-four hours after the last administration, thymus was removed and cell suspension was prepared. The numbers of spontaneous rosette forming cells (hereinafter referred to as S-RFC) were measured the method of Takeichi and Boone [Cellular Immunology, vol. 27, p.

Another data set deals with male Wistar rats. In words: Acute toxicity in rats (LD50, Probit method). To be noted: after one week, 10080 min. In kind it is in vivo. The method, then:
(§2) Compound (I) was administered orally or intraperitoneally to groups of 8 male Wistar rats weighing about 200 g. After one week, acute toxicity (LD50 value) was determined by Probit method.

For another data set, the system named is male dd-strain mice. Kind of data set: Acute toxicity in mice (LD50). In kind it is in vivo. As to conditions: 10080 min. Here is the method:
as §2
LD50 values of Compound (I) in groups of 10 male dd-strain mice weighing 20-25 g were also determined.

Data set [2] has as its system thymus-rossete forming cells (RFC). Kind of data set: Restorative effect on reduced immune response: thymus RFC in cyclophosphamide-pretreated mice. The format is in vivo, BALB/c mice. To be noted: for Ratio (%) of RFC (mean ± standard error): BALB/c mice; for % decrease: RFC ratio vs control. Here is the method:
(§3) Six week-old female C57BL/6 mice were immunized with the intraperitoneal administration of 5 x 10^8 sheep red blood cells. […] On the 4th day after immunization, the numbers of thymus-rossete forming cells (RFC) in mice were assessed by the method of Bach et al [Cellular Immunology, vol. 3, p. […] Viable thymus lymphocytes which attached to four or more sheep red blood cells were determined as RFC. In control group, 0.5% methylcellulose solution was orally administered into mice.
The same procedures as shown in Experiment 1 were performed except that six week-old female BALB/c mice were immunized with 5 x 10^8 sheep red blood cells and 20 mg/kg cyclophosphamide was orally administered to mice the day before and on immunization.

The test system is the same in data set [3]. Kind of data set: Stimulative effect on immune response: thymus rosette forming cells after sheep red blood cell immunization. The format is in vivo, C57BL/6 mice. As to conditions: for Ratio (%) of RFC (mean ± standard error): C57BL/6 mice, control 1.06±0.31; for % increase: RFC ratio vs control. Here is the method:
as §3

Data set [4] deals with MeHSA-induced DTH. In words: Stimulative effect on cell-mediated immunity: MeHSA-induced delayed type hypersensitivity, footpad thickness. The format is in vivo, C57BL/6 mice. To be noted: for DTH (mm) (mean ± standard error): C57BL/6 mice, control 0.21±0.02; for % increase: DTH vs control. The method, then:
(§4) Eight week-old female C57BL/6 mice were injected subcutaneously in the back with 0.1 ml of a 0.25% methylated human serum albumin (hereinafter referred to as MeHSA). Compound (I) was administered orally for 4 consecutive days from the day of the sensitization. One hour after the last administration of Compound (I), 0.025 ml of a 0.1% MeHSA solution was injected subcutaneously on the left hind^paw. The thickness of footpad was measured the 24 hours after the injection using a dissecting microscope by the method of Baba et al [Acta Pathology Japan, vol. 27, p. 165 (1977)]. The difference between the thickness of footpad before and after the injection of MeHSA was expressed as the delayed type hypersensitivity (hereinafter referred to as DTH).

The subject of data set [5] is rat peritoneal leukocytes. In words: Stimulative effect on phagocytosis of leukocytes. In kind it is cell-based.
Excerpt: as §1

The subject of data set [6] is natural thymotoxic autoantibody. In words: Inhibitory effect on the production of autoantibody (NTA). The format is in vivo, NZB/W F1 mice. As to conditions: 30 mg/kg orally three times every week. Here is the method:
To 4 week-old female NZB/W F, mice was orally administered Compound (I) three times every week and, at 7 week-old mice blood was gathered from the eyegrounds and the serum was separated. The detection of natural thymotoxic autoantibody (hereinafter referred to as NTA) was performed by the method of Takeichi et al [Cellular Immunology, vol. 60, p. 181 (1981)].

For data set [7], the system named is MeHSA-induced DTH. Kind of data set: Immunosuppressive effect: MeHSA-induced DTH in higher responder strain. To be noted: for DTH (mm) (mean ± standard error): BALB/c mice, control 0.96±0.09; for % inhibition: DTH vs control. In kind it is in vivo, BALB/c mice. The method, then: as §4
Effect of Compound (I) on the MeHSA-induced DTH was examined in 10 week-old female BALB/c mice, higher responder strain to the MeHSA-induced DTH, by the same procedures as described in Experiment 5.

Consider `CCN(CC)CCN1CCC2(CC1)SCC(=O)N2c1ccccc1.Cl.Cl.O` [Compound (I), 8-(2-diethylaminoethyl)-3-oxo-4-phenyl-l-thia-4,8-diazaspiro-[4.5]decane dihydrochloride monohydrate], for which the “% increase of phagocytosis” value in the data set on peritoneal macrophages (10 µM) is given as 12.5%; in the data set on peritoneal macrophages (100 µM) it was 30.6%; in data set [5] (10 μM), 27.1%; in data set [5] (100 μM), 61.4%. In addition, the “Ratio (%) of S-RFC (mean ± standard error)” value turned out to be 55.0±5.2% in data set [1] (25 mg/kg orally for 20 days) and 57.8±3.6 % in data set [1] (100 mg/kg orally for 20 days). The “% increase” value was found to be 18% in data set [1] (25 mg/kg orally); 24% in [1] (100 mg/kg orally); 403% in [3] (3 mg/kg orally); 492% in data set [3] (30 mg/kg orally); 5% in the data set with MeHSA-induced DTH [4] (10 mg/kg orally); 100% in the data set with MeHSA-induced DTH [4] (100 mg/kg orally). The “% increase” value in the data set with MeHSA-induced DTH [4] (300 mg/kg orally) was found to be 57%. The median lethal dose (LD50) is reported as 827 mg/kg in the data set with male Wistar rats (intraperitoneal), >8,000 mg/kg with male Wistar rats (oral), 474 mg/kg in the data set on male dd-strain mice (intraperitoneal) and 1,841 mg/kg in the data set with male dd-strain mice (oral). Besides, the “Ratio (%) of RFC (mean ± standard error)” value stood at 1.78±0.80% in data set [2] (Compound (I) 10 mg/kg orally with cyclophosphamide 20 mg/kg); 3.86±0.52 % in [2] (Compound (I) 30 mg/kg orally with cyclophosphamide 20 mg/kg); 5.26±0.64 % in data set [2] (Compound (I) 100 mg/kg orally with cyclophosphamide 20 mg/kg); 5.33±0.99 % in [3] (3 mg/kg orally for 4 days); 6.28±1.27 % in [3] (30 mg/kg orally for 4 days). The “% decrease” value was determined as 74% in [2] (Compound (I) 10 mg/kg with cyclophosphamide 20 mg/kg), 43% in data set [2] (Compound (I) 30 mg/kg with cyclophosphamide 20 mg/kg) and 23% in data set [2] (Compound (I) 100 mg/kg with cyclophosphamide 20 mg/kg). In addition, the “DTH (mm) (mean ± standard error)” value with MeHSA-induced DTH [4] (10 mg/kg orally for 4 days) came out at 0.22±0.02 mm; in the data set with MeHSA-induced DTH [4] (100 mg/kg orally for 4 days) it was 0.42±0.03 mm; in the data set with MeHSA-induced DTH [4] (300 mg/kg orally for 4 days), 0.33±0.03 mm; with MeHSA-induced DTH [7] (3 mg/kg orally) it was 0.91±0.04 mm; with MeHSA-induced DTH [7] (30 mg/kg orally), 0.77±0.03 mm; in the data set on MeHSA-induced DTH [7] (300 mg/kg orally), 0.71±0.04 mm. For the same molecule, the “NTA (%) (mean ± standard error)” value in data set [6] (dilution of serum 64, control 28.0±0.8) is on record as 9.5±0.6 %; in data set [6] (dilution of serum 128, control 20.3±1.1), 8.7±0.5 %. The “% inhibition” value came out at 5% with MeHSA-induced DTH [7] (3 mg/kg orally), 20% in the data set with MeHSA-induced DTH [7] (30 mg/kg orally) and 36% in the data set with MeHSA-induced DTH [7] (300 mg/kg orally).
On to `O=P1(N(CCCl)CCCl)NCCCO1` (stereo not drawn) [Cyclophosphamide, cyclophosphamide, reference compound], for which the “% decrease” value in data set [2] (cyclophosphamide 20 mg/kg alone) is listed as 79%; in [2] (cyclophosphamide 20 mg/kg alone, listed as cyclophosphamide), “about 79%”. The “Ratio (%) of RFC (mean ± standard error)” value in data set [2] (cyclophosphamide 20 mg/kg orally alone, control 6.81±1.38) turned out to be 1.14±0.63%.
